In patent US11840686B2, “Modulation of prekallikrein (PKK) expression” (Ionis Pharmaceuticals, Inc., priority 2013, dated 2023):
Strand notation (5' to 3'): a small letter for the sugar, then the base; units joined by * are phosphorothioate-linked, units joined directly phosphodiester-linked; [ ] holds rarer units or linkages, { } end groups; capitals alone tell only the bases. e = 2'-O-(2-methoxyethyl) (MOE); [5mC] = 5-methylcytosine; d = 2'-deoxy (DNA)

Experiments:
human PKK mRNA [1] = experiment: Antisense inhibition of human PKK mRNA in HepaRG cells, 5,000 nM (Example 2); format: cell-based
Procedure, shortened: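 HepaRG cells, 20,000 per well, were electroporated with 5,000 nM MOE gapmer (phosphorothioate, 5-methylcytosine) and incubated about 24 hours. PKK mRNA was quantified by qRT-PCR with primer probe set RTS3454, normalized to RIBOGREEN total RNA, and expressed as percent inhibition versus untreated controls.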

human PKK mRNA [2] = experiment: Dose-dependent antisense inhibition of human PKK in HepaRG cells, 0.19-5.00 uM (Example 5); format: cell-based
Procedure, shortened: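 HepaRG cells (20,000/well) were electroporated with antisense oligonucleotide at 0.19, 0.56, 1.67 and 5.00 μM and treated for about 16 hours. PKK mRNA was quantified by qRT-PCR with primer probe set RTS3454, normalised to RIBOGREEN total RNA, and IC50 was derived per oligonucleotide.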

[3] = HepaRG cells, electroporation, approximately 16 hours, Table 38
[4] = Table 7, HepaRG cells, electroporation with 5,000 nM antisense oligonucleotide, approx. 24 hours, PKK mRNA by RT-PCR (RTS3454), relative to untreated control cells
[5] = HepaRG cells, electroporation, approximately 16 hours, Table 36
[6] = 4 point dose response, HepaRG cells, Table 36
[7] = Table 34, HepaRG, electroporation, ~16 h
[8] = HepaRG cells, electroporation, approximately 16 hours, Table 37
[9] = HepaRG cells, electroporation, approximately 16 hours, Table 35

## 547584 (eG*eT*eA*eT*e[5mC]*dA*d[5mC]*dT*dG*dT*d[5mC]*d[5mC]*dT*dA*dT*eA*eT*e[5mC]*eA*e[5mC]; antisense) [compound 547584]
Human PKK mRNA [1]; human PKK mRNA in HepaRG cells, 5-10-5 gapmers, Table 14
  % inhibition: 85%
Human PKK mRNA [2]; [3]
  percent inhibition of PKK at 0.19 μM: 26%
  percent inhibition of PKK at 0.56 μM: 34%
  percent inhibition of PKK at 1.67 μM: 76%
  percent inhibition of PKK at 5.00 μM: 86%
Human PKK mRNA [2]; 4 point dose response, HepaRG cells, Table 38
  IC50: 700 nM
Human PKK mRNA [2]; HepaRG cells, 0.19 μM antisense oligonucleotide
  percent inhibition of PKK mRNA, 0.19 μM: 0%
Human PKK mRNA [2]; HepaRG cells, 0.56 μM antisense oligonucleotide
  percent inhibition of PKK mRNA, 0.56 μM: 21%
Human PKK mRNA [2]; HepaRG cells, 1.67 μM antisense oligonucleotide
  percent inhibition of PKK mRNA, 1.67 μM: 64%
Human PKK mRNA [2]; HepaRG cells, 5.00 μM antisense oligonucleotide
  percent inhibition of PKK mRNA, 5.00 μM: 92%
Human PKK mRNA [2]; HepaRG cells, 0.19-5.00 μM
  IC50: 1300 nM

## 546247 (e[5mC]*e[5mC]*eA*eA*eA*dG*dT*d[5mC]*dA*dA*d[5mC]*dT*d[5mC]*d[5mC]*d[5mC]*eG*eG*eG*eT*eA; antisense) [compound 546247]
Human PKK mRNA [1]; [4]
  % inhibition: 90%
Human PKK mRNA [2]; [5]
  percent inhibition of PKK at 0.19 μM: 0%
  percent inhibition of PKK at 0.56 μM: 29%
  percent inhibition of PKK at 1.67 μM: 71%
  percent inhibition of PKK at 5.00 μM: 88%
Human PKK mRNA [2]; [6]
  IC50: 1100 nM

## 546833 (eA*e[5mC]*eT*e[5mC]*eT*dA*dA*d[5mC]*dA*dG*dT*dA*dT*d[5mC]*dA*e[5mC]*eT*eG*eT*eA; antisense) [compound 546833]
Human PKK mRNA [1]; Table 13, human PKK mRNA in HepaRG cells, 5-10-5 gapmers
  % inhibition: 90%
Human PKK mRNA [2]; [5]
  percent inhibition of PKK at 0.19 μM: 8%
  percent inhibition of PKK at 0.56 μM: 33%
  percent inhibition of PKK at 1.67 μM: 74%
  percent inhibition of PKK at 5.00 μM: 94%
Human PKK mRNA [2]; [6]
  IC50: 900 nM

## 547464 (antisense eG*e[5mC]*eT*eT*eG*dT*dG*dT*d[5mC]*dA*d[5mC]*d[5mC]*dT*dT*dT*eG*eG*eA*eA*eG) [compound 547464]
Human PKK mRNA [1]; Table 9 experiment, HepaRG cells, 20,000 cells per well, electroporation with 5,000 nM antisense oligonucleotide, approx. 24 hours, PKK mRNA by RT-PCR (RTS3454), relative to untreated control cells
  % inhibition: 95%
Human PKK mRNA [1]; Table 10 experiment, HepaRG cells, 20,000 cells per well, electroporation with 5,000 nM antisense oligonucleotide, approx. 24 hours, PKK mRNA by RT-PCR (RTS3454), relative to untreated control cells
  % inhibition: 84%
Human PKK mRNA [2]; [7]
  percent inhibition of PKK at 0.19 μM: 21%
  percent inhibition of PKK at 0.56 μM: 52%
  percent inhibition of PKK at 1.67 μM: 67%
  percent inhibition of PKK at 5.00 μM: 97%
Human PKK mRNA [2]; Table 34, PKK mRNA, HepaRG, electroporation, ~16 h
  IC50: 600 nM

## 546214 (antisense eG*eA*eG*eA*eA*d[5mC]*d[5mC]*d[5mC]*dT*dG*dG*d[5mC]*dA*dA*d[5mC]*eA*eT*e[5mC]*e[5mC]*eA) [compound 546214]
Human PKK mRNA [1]; [4]
  % inhibition: 88%
Human PKK mRNA [2]; [8]
  percent inhibition of PKK at 0.19 μM: 0%
  percent inhibition of PKK at 0.56 μM: 0%
  percent inhibition of PKK at 1.67 μM: 68%
  percent inhibition of PKK at 5.00 μM: 85%
Human PKK mRNA [2]; 4 point dose response, HepaRG cells, Table 37
  IC50: 1300 nM

## 546268 (e[5mC]*eT*eT*e[5mC]*e[5mC]*dT*dT*dA*d[5mC]*dA*dG*dT*d[5mC]*dT*dT*e[5mC]*eT*eG*eG*eG; antisense) [compound 546268]
Human PKK mRNA [1]; Table 8, HepaRG cells, electroporation with 5,000 nM antisense oligonucleotide, approx. 24 hours, PKK mRNA by RT-PCR (RTS3454), relative to untreated control cells
  % inhibition: 93%
Human PKK mRNA [2]; [9]
  percent inhibition of PKK at 0.19 μM: 56%
  percent inhibition of PKK at 0.56 μM: 50%
  percent inhibition of PKK at 1.67 μM: 82%
  percent inhibition of PKK at 5.00 μM: 93%
Human PKK mRNA [2]; HepaRG cells, electroporation, approximately 16 hours, Table 41
  percent inhibition of PKK at 5.00 μM: 92%
Human PKK mRNA [2]; 0.19 0μM, HepaRG cells, electroporation, approximately 16 hours, Table 41
  percent inhibition of PKK at 0.19 0μM: 0%
Human PKK mRNA [2]; 0.56 0μM, HepaRG cells, electroporation, approximately 16 hours, Table 41
  percent inhibition of PKK at 0.56 0μM: 71%
Human PKK mRNA [2]; 1.67 1μM, HepaRG cells, electroporation, approximately 16 hours, Table 41
  percent inhibition of PKK at 1.67 1μM: 92%
Human PKK mRNA [2]; 4 point dose response, HepaRG cells, Table 41
  IC50: 500 nM
